Starred links: 1 amine or outer side, 2 acyl side, 3 side chain; linkers in the order of their positions; H or OH if unused. Non-standard residues stand in square brackets, D forms with d. Residues, ends and D or L forms follow the SMILES beside them. *: point of attachment. X1 = O=C([C@@H]1CCNc2c(N[*:1])cc3cc(O)c(O)cc3[n+]21)[*:2]; dOrn(N5-OH,N5-CHO) = N[C@H](CCCN(O)C=O)C(=O)O; Butanoyl(2-oxo,4-COOH) = O=C(O)CCC(=O)C(=O)*; d(aThr) = C[C@@H](O)[C@@H](N)C(=O)O; X2 = O=C1[C@@H](N*)CCCN1[O-]; X3 = O=C1[C@@H](N*)CCCN1O; Orn = NCCC[C@H](N)C(=O)O
Assays:
[1] = target: T1, hNGAL (human lipocalin 2, parent wild type SEQ ID NO: 1) mutein SEQ ID NO: 31 (Homo sapiens, UniProt P80188, A60T/C107S/D97H/K145I/K154W/K93R/L123T/L56V/L90R/Q48H/Q69G/R101D/R92I/S147R/S88D/W99Y/Y126Q/Y152I/Y72N); test: Solution binding ELISA
T1 construct: made in house; host or cells: E. coli
T1 sequence (P80188 other isoform, or with tags, fused parts or gaps with the stated changes): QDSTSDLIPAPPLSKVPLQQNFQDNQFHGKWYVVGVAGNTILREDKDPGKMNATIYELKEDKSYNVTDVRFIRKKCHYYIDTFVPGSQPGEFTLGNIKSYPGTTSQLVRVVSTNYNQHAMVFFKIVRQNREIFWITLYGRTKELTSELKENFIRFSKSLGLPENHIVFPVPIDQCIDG
Description: (§5) The residual supernatants were discarded and 20 μl HRP-labeled anti-hNGAL antibody was added at a predetermined optimal concentration in PBS-T/BSA and incubated for 1 h at RT. […] After washing, 20 μl fluorogenic HRP substrate (QuantaBlu, Thermo) was added to each well, and the reaction was allowed to proceed for 15 to 60 minutes. The fluorescence intensity of every well on the plate was read using a fluorescence microplate reader (Tecan or Molecular Devices). […] Curve fitting was performed using GraphPad Prism 4 software.

[2] = target: T2, hNGAL (human lipocalin 2, parent wild type SEQ ID NO: 1) mutein SEQ ID NO: 36 (Homo sapiens, UniProt P80188, A60T/C107S/D97H/K145I/K154W/K93R/L123T/L56V/L90R/N85D/Q69G/R101D/R92I/S147R/S88D/T74A/W99Y/Y126Q/Y152I/Y72N); test: Surface plasmon resonance (Biacore T200); type: binding; conditions: SPR, 25° C., Table 2B
T2 construct: made in house; host or cells: E. coli
T2 sequence (P80188 21-198 with the stated changes): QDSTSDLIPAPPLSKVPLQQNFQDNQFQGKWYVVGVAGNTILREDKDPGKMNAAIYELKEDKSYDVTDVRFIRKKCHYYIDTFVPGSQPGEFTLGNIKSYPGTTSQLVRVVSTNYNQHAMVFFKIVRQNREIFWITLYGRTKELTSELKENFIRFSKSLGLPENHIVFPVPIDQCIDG
Description: (§6) In a Surface Plasmon Resonance (SPR) based assay a Biacore T200 instrument (GE Healthcare) was used to measure the binding affinity of muteins to pyoverdine I succinyl, -succinamide, -α-ketoglutaryl with complexed iron ion or to pyoverdine II succinyl, -succinamide, -α-ketoglutaryl with complexed iron ion or to pyoverdine III succinyl, -succinamide, -α-ketoglutaryl with complexed iron ion. Muteins selected for binding to pyoverdines and negative control (SEQ ID NO: 64) were biotinylated for 2 h at room temperature applying an appropriate excess of EZ-Link NHS-PEG4-Biotin (Thermo, Cat #21329) followed by separation of non-reacted Biotin using a Zebra Spin Desalting Plate (Thermo, Cat #21329) according to the manufactures instructions.
In the SPR affinity assay, biotinylated muteins and negative control were captured on a sensor chip CAP using the Biotin CAPture Kit (GE Healthcare): Sensor Chip CAP is pre-immobilized with an ssDNA oligo. Undiluted Biotin CAPture Reagent (streptavidin conjugated with the complementary ss-DNA oligo) was applied at a flow rate of 2 μl/min for 300 s. Subsequently, 1 μg/ml to 100 μg/mL of biotinylated muteins or negative control were applied for 300 s at a flow rate of 5 μl/min. […]
Applying a flow rate of 30 μl/min, a single cycle or multi cycle kinetics approach was used with a sample contact time of 120-180 s and a dissociation time of 900-2400 s. […] After ligand immobilization, for analysis using single cycle kinetics all 4-5 concentrations of Pvd were applied consecutively in ascending order before the dissociation was monitored. […] Data were evaluated with Biacore T200 Evaluation software (V 1.0). […]
In the SPR affinity assay, biotinylated muteins and negative control were captured on a sensor chip CAP using the Biotin CAPture Kit (GE Healthcare), wherein the Sensor Chip CAP is pre-immobilized with an ssDNA oligo. […] After ligand immobilization, the four concentrations of Pvd were applied consecutively in ascending order before the dissociation was monitored. […] Data were evaluated with Biacore T200 Evaluation software (V 1.0). […]

[3] = target: T3, hNGAL (human lipocalin 2, parent wild type SEQ ID NO: 1) mutein SEQ ID NO: 29 (Homo sapiens, UniProt P80188, A60Q/C107S/D97N/E64D/I61V/K154W/K93N/L123H/L56V/L90R/Q48H/Q69G/R101E/R92H/S147K/S88E/Y120N/Y126M/Y152G/Y72P); test: Solution binding ELISA
T3 construct: made in house; host or cells: E. coli
T3 sequence (P80188 other isoform, or with tags, fused parts or gaps with the stated changes): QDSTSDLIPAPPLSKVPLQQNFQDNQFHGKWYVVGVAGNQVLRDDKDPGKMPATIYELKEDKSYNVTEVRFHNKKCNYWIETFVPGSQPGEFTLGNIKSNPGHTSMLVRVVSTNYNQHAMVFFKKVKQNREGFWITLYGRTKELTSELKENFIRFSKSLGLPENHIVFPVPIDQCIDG
Description: as §5

[4] = target: T4, hNGAL (human lipocalin 2, parent wild type SEQ ID NO: 1) mutein SEQ ID NO: 30 (Homo sapiens, UniProt P80188, A60T/C107S/D97H/K145I/K154W/K93F/L123M/L56V/L90R/Q48H/Q69G/R101D/R92I/S147R/S88D/W99Y/Y126Q/Y152I/Y72N); test: Solution binding ELISA
T4 construct: made in house; host or cells: E. coli
T4 sequence (P80188 other isoform, or with tags, fused parts or gaps with the stated changes): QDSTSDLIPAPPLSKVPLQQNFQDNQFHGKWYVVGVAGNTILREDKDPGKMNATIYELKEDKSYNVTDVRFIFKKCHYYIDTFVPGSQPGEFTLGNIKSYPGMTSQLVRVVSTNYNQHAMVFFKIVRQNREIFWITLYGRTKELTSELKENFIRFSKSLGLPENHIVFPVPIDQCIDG
Description: as §5

[5] = target: T5, hNGAL (human lipocalin 2, parent wild type SEQ ID NO: 1) mutein SEQ ID NO: 27 (Homo sapiens, UniProt P80188, A60T/C107S/D97N/E64D/I61V/K154W/K93N/L123Q/L56V/L90R/Q48H/Q69G/R101E/R92H/S147K/S88E/W99S/Y126M/Y152V/Y72P); test: Solution binding ELISA
T5 construct: made in house; host or cells: E. coli
T5 sequence (P80188 other isoform, or with tags, fused parts or gaps with the stated changes): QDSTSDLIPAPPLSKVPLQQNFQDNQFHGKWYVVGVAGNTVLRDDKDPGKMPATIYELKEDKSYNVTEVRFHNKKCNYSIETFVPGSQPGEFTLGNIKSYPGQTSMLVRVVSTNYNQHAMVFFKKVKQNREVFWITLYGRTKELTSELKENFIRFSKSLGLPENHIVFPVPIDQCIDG
Description: as §5

[6] = target: T6, hNGAL (human lipocalin 2, parent wild type SEQ ID NO: 1) mutein SEQ ID NO: 34 (Homo sapiens, UniProt P80188, A60T/C107S/D97H/K145I/K154W/K93R/L123T/L56V/L90R/N85D/Q48H/Q69G/R101D/R92I/S147R/S88D/T74A/W99Y/Y126Q/Y152I/Y72N); test: Solution binding ELISA; conditions: Example 5
T6 construct: made in house; host or cells: E. coli
T6 sequence (P80188 other isoform, or with tags, fused parts or gaps with the stated changes): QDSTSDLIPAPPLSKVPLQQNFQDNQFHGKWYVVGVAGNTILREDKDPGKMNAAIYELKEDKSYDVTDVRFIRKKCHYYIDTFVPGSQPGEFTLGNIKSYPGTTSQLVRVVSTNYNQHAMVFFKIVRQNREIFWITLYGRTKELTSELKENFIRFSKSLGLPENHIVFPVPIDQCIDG
Description: as §5

[7] = target: T7, hNGAL (human lipocalin 2, parent wild type SEQ ID NO: 1) mutein SEQ ID NO: 26 (Homo sapiens, UniProt P80188, A60E/C107S/D97N/E64D/I61V/K145N/K154W/K93N/L123V/L56V/L90R/N116K/Q48H/Q69G/R101E/R92H/S147K/S88E/W99S/Y120N/Y126M/Y152G/Y72P); test: Solution binding ELISA
T7 construct: made in house; host or cells: E. coli
T7 sequence (P80188 other isoform, or with tags, fused parts or gaps with the stated changes): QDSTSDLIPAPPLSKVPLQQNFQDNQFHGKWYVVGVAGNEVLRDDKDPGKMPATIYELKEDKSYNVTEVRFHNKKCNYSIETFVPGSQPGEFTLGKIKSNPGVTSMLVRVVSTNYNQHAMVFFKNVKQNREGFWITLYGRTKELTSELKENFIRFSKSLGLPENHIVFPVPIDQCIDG
Description: as §5

[8] = target: T8, Fusion molecule SEQ ID NO: 134 (hNGAL muteins SEQ ID NOs: 36, 16, 53 and 62) (Homo sapiens, UniProt P80188, A60T/C107S/D97H, form not given/K145I/K154W/K93R/L123T/L56V/L90R/N85D/Q69G/R101D/R92I/S147R/S88D/T74A/W99Y/Y126Q/Y152I/Y72N); test: Surface plasmon resonance (Biacore T200); type: binding; conditions: Biacore, 25° C., Table 13
T8 construct: made in house; host or cells: HEK293
T8 sequence (P80188 with tags, fused parts or gaps with the stated changes, form open): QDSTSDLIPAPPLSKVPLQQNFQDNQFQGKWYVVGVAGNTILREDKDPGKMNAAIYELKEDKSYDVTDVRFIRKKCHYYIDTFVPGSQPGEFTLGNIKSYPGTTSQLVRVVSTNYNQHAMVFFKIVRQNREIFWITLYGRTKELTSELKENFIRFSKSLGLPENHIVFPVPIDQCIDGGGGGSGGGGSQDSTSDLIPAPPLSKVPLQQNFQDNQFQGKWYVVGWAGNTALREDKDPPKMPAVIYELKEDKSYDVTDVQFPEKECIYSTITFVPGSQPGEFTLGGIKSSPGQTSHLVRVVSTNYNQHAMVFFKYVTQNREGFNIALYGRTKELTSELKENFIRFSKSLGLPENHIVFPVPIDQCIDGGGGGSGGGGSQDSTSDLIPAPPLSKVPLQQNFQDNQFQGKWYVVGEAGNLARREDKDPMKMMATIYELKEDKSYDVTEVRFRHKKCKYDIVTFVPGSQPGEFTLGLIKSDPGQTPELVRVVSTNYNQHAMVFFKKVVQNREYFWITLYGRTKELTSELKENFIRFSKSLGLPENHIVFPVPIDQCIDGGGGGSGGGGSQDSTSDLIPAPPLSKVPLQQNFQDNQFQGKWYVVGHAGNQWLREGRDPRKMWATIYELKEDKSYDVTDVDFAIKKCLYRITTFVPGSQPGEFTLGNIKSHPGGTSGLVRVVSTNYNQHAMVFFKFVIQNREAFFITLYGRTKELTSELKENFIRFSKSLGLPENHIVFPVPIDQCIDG

[9] = target: T9, Fusion molecule SEQ ID NO: 134 (hNGAL muteins SEQ ID NOs: 36, 16, 53 and 62) (Homo sapiens, UniProt P80188, A60T/C107S/D97H, form not given/K145I/K154W/K93R/L123T/L56V/L90R/N85D/Q69G/R101D/R92I/S147R/S88D/T74A/W99Y/Y126Q/Y152I/Y72N); test: Solution binding ELISA; conditions: binding to target in solution, tracer 0.1 nM, Table 11
T9 construct: made in house
T9 sequence (P80188 with tags, fused parts or gaps with the stated changes, form open): as above

[10] = target: T10, hNGAL (human lipocalin 2, parent wild type SEQ ID NO: 1) mutein SEQ ID NO: 28 (Homo sapiens, UniProt P80188, A60T/C107S/D97N/E64D/I61V/K154W/L123Q/L56V/L90R/N116K/Q48H/Q69G/R101E/R92H/S147K/S88E/W99F/Y120H/Y126M/Y152A/Y72P); test: Solution binding ELISA
T10 construct: made in house; host or cells: E. coli
T10 sequence (P80188 other isoform, or with tags, fused parts or gaps with the stated changes): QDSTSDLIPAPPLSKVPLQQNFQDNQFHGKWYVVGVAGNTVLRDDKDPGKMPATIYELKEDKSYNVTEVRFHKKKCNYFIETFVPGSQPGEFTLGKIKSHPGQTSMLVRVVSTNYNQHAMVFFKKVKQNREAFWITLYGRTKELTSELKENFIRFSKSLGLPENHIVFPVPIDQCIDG
Description: as §5

[11] = target: T11, hNGAL (human lipocalin 2, parent wild type SEQ ID NO: 1) mutein SEQ ID NO: 20 (Homo sapiens, UniProt P80188, A60T/C107S/D97H/K145I/K154W/K93M/L123T/L90R/N116I/Q48H/Q69G/R101E/R92I/S147R/S88D/W99Y/Y120N/Y126Q/Y152M/Y72N); conditions: solution binding ELISA
T11 construct: made in house; host or cells: E. coli
T11 sequence (P80188 other isoform, or with tags, fused parts or gaps with the stated changes): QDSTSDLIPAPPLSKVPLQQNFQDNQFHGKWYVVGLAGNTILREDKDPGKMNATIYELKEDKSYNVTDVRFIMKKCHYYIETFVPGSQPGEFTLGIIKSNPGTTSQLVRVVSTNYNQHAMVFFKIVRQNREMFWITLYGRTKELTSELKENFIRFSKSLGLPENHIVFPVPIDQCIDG
Description: as §5

[12] = target: T12, hNGAL (human lipocalin 2, parent wild type SEQ ID NO: 1) mutein SEQ ID NO: 19 (Homo sapiens, UniProt P80188, A60E/C107S/D97N/I61V/K154W/K93N/L123Q/L56V/L90R/Q48H/Q69G/R101E/R92H/S147K/S88E/W99S/Y120N/Y126M/Y152G/Y72P); test: Solution binding ELISA
T12 construct: made in house; host or cells: E. coli
T12 sequence (P80188 other isoform, or with tags, fused parts or gaps with the stated changes): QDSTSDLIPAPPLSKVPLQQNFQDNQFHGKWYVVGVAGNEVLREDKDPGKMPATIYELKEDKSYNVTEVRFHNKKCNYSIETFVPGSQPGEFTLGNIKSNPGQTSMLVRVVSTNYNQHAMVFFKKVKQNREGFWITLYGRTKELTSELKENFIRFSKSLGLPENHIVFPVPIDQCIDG
Description: as §5

[13] = target: hNGAL muteins from affinity optimization of SEQ ID NO: 56 (Homo sapiens, UniProt P80188); test: Solution binding ELISA
Sequence of hNGAL muteins from affinity optimization of SEQ ID NO: 56 (P80188 21-198, stated change not applied): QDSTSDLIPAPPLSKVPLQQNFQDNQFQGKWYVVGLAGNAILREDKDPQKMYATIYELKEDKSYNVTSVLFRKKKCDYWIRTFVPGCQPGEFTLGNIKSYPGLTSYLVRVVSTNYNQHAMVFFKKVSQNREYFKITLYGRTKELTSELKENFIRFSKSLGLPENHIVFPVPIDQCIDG
Description: (§1) Solution binding of muteins was assayed by a “Solution binding ELISA”, the principle of which was as follows: a constant concentration of the tested mutein was incubated with variable concentrations of ligands (Pvd I s, sa, αKG+/−Fe/Pvd II s, sa, αKG+/−Fe/Pvd III s, sa, αKG+/−Fe/Pch+/−Fe) for 1 h. After this pre-incubation in solution, an aliquot of the mutein/ligand mixture was transferred to an ELISA plate with biotinylated Pvd I s (+Fe), Pvd II s (+Fe), Pvd III s (+Fe) or Pch immobilized via Neutravidin to measure the remaining concentration of free muteins. The concentration of free (non ligand-bound) muteins was determined via a quantitative ELISA setup.
(§2) In detail, a 384-well plate suitable for fluorescence measurements (Greiner FLUOTRAC™ 600, black flat bottom, high-binding) was coated with 20 μl of Neutravidin at a concentration of 5 μg/ml in PBS overnight at 4 C. After washing, the Neutravidin-coated wells were blocked with 100 μl blocking buffer containing 0.1% Tween 20 and 2% BSA (PBS-T/BSA) for 1 h at room temperature.
(§3) A fixed concentration of muteins was incubated in solution with varying concentrations of ligand (Pvd I s, sa, αKG+/−Fe/Pvd II s, sa, αKG+/−Fe/Pvd III s, sa, αKG+/−Fe/Pch+/−Fe), using a suitable starting concentration which was serially diluted at a 1:3 ratio down to the picomolar range in PBS-T/BSA. […] To allow for transformation of ELISA readout results into absolute free mutein concentrations, a standard curve containing varying concentrations of muteins was prepared in PBS-T/BSA and incubated for 20 min on the same ELISA plate as well.
(§4) The residual supernatants were discarded and 20 μl HRP-labeled anti-hNGAL antibody was added at a predetermined optimal concentration in PBS-T/BSA and incubated for 1 h at RT. […] The fluorescence intensity of every well on the plate was read using a fluorescence microplate reader (Tecan or Molecular Devices). To evaluate the data, free mutein concentration, c(mutein)free, was calculated based on the standard curve results, and plotted versus ligand concentration, c(Ligand). […]

[14] = target: hNGAL muteins from affinity optimization of SEQ ID NO: 55 (Homo sapiens, UniProt P80188); test: Solution binding ELISA
Sequence of hNGAL muteins from affinity optimization of SEQ ID NO: 55 (P80188 21-198, stated change not applied): as above
Description: as §1, §2, §3, §4

[15] = target: T13, hNGAL (human lipocalin 2, parent wild type SEQ ID NO: 1) mutein SEQ ID NO: 56 (Homo sapiens, UniProt P80188, A60F/C107S/D97A/I61H/K145G/K154V/K93A/L123M/L56M/L90P/N116A/Q48H/Q69S/R101I/R92W/S147W/S88H/W99K/Y120G/Y126W/Y152T/Y72P); test: Solution binding ELISA
T13 construct: made in house; host or cells: E. coli
T13 sequence (P80188 21-198 with the stated changes): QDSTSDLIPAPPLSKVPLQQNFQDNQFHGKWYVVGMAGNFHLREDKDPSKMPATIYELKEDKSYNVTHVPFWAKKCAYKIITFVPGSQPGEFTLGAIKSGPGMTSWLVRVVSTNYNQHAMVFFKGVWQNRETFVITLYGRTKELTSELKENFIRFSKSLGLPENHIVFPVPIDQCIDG
Description: as §5

[16] = target: T14, hNGAL (human lipocalin 2, parent wild type SEQ ID NO: 1) mutein SEQ ID NO: 57 (Homo sapiens, UniProt P80188, A60Y/C107S/D97R/I61W/K145L/K154N/K93R/L123Q/L56V/L90R/N116P/Q48H/Q69A/R101W/R92W/S147R/S88D/W99D/Y120E/Y126R/Y152A); test: Solution binding ELISA
T14 construct: made in house; host or cells: E. coli
T14 sequence (P80188 21-198 with the stated changes): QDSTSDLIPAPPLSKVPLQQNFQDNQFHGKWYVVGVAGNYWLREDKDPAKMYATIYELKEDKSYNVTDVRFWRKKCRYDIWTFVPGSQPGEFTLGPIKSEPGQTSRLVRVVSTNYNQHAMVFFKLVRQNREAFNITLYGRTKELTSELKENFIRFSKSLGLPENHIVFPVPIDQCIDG
Description: as §5

[17] = target: lipocalin negative control SEQ ID NO: 64 (Homo sapiens, UniProt P80188, C107S/Q48H); test: Surface plasmon resonance (Biacore T200); type: binding; conditions: SPR, analyte at 200 nM
Sequence of lipocalin negative control SEQ ID NO: 64 (P80188 21-198 Q48H/C107S): as the sequence (P80188 21-198, stated change not applied) above, with Q28H, C87S counted along it
Description: as §6
In the SPR affinity assay, biotinylated muteins and negative control were captured on a sensor chip CAP using the Biotin CAPture Kit (GE Healthcare): Sensor Chip CAP is pre-immobilized with an ssDNA oligo. Undiluted Biotin CAPture Reagent (streptavidin conjugated with the complementary ss-DNA oligo) was applied at a flow rate of 2 μl/min for 300 s. Subsequently, 1 μg/ml to 100 μg/mL of biotinylated muteins or negative control were applied for 300 s at a flow rate of 5 μl/min. The reference channel was loaded with Biotin CAPture Reagent only.
Applying a flow rate of 30 μl/min, a single cycle or multi cycle kinetics approach was used with a sample contact time of 120-180 s and a dissociation time of 900-2400 s. […] After ligand immobilization, for analysis using single cycle kinetics all 4-5 concentrations of Pvd were applied consecutively in ascending order before the dissociation was monitored. For analysis using multi cycle kinetics 4 dilutions of Pvd were applied, each followed a dissociation phase. All measurements were performed at 25° C. […] Data were evaluated with Biacore T200 Evaluation software (V 1.0). Double referencing was used. A 1:1 Binding model was used to fit the raw data.
Subsequently, 5 μg/mL of mutein or the negative control solution in 10 mM acetate pH 4.0 was applied at a flow rate of 10 μl/min until a high immobilization level of approximately 2000 RU was achieved. Residual activated groups were quenched with ethanolamine. The reference channels were treated with EDC/NHS following ethanolamine (blank immobilization).
In the SPR affinity assay, biotinylated muteins and negative control were captured on a sensor chip CAP using the Biotin CAPture Kit (GE Healthcare), wherein the Sensor Chip CAP is pre-immobilized with an ssDNA oligo. Undiluted Biotin CAPture Reagent (streptavidin conjugated with the complementary ss-DNA oligo) was applied at a flow rate of 2 μl/min for 300 s. Subsequently, 20 μg/ml to 100 μg/mL of biotinylated muteins or fusion molecule negative control were applied for 300 s at a flow rate of 5 μl/min. The reference channel was loaded with Biotin CAPture Reagent only. To determine the binding affinity, four dilutions of the respective Pvd were prepared in HBS-EP+ buffer (GE Healthcare) and applied to the chip surface. Applying a flow rate of 30 μl/min, a single cycle kinetics approach was used with a sample contact time of 180 s and a dissociation time of 1800-2400 s. […] After ligand immobilization, the four concentrations of Pvd were applied consecutively in ascending order before the dissociation was monitored. All measurements were performed at 25° C. […] Data were evaluated with Biacore T200 Evaluation software (V 1.0). Double referencing was preformed. A 1:1 binding model was used to fit the raw data.

Row | SMILES | IC50 [1] | Kd [2] | koff [2] | kon [2] | IC50 [3] | IC50 [4] | IC50 [5] | IC50 [6] | IC50 [7] | Kd [8] | IC50 [9] | IC50 [10] | IC50 [11] | IC50 [12] | affinity (in words) [13] | affinity (in words) [14] | affinity (in words) [15] | affinity (in words) [16] | binding [17]
1 | C[C@@H](O)[C@@H](NC(=O)CNC(=O)[C@H](CCCN)NC(=O)[C@@H](CCCN([O-])C=O)NC(=O)[C@@H](CO)NC(=O)[C@@H]1CCNc2c(NC(=O)C(=O)CCC(=O)O)cc3cc([O-])c([O-])cc3[n+]21)C(=O)N[C@@H](CO)C(=O)N[C@H]1CCCN([O-])C1=O.[Fe+3] [Pvd II aKG (+Fe), Pvd type II α-ketoglutaryl] ({Butanoyl(2-oxo,4-COOH)}-[X1][dS][dOrn(N5-OH,N5-CHO)][Orn]G[d(aThr)]S-X2) | 1.1 nM | 1.97 nM | 5.62e-05 s⁻¹ | 28600 M⁻¹ s⁻¹ | 1.9 nM | 3 nM | 1.97 nM | 1.6 nM | 1.3 nM | 1.19 nM | 0.88 nM | 2.25 nM | 85 nM | 21 nM | – | – | – | – | –
2 | C[C@@H](O)[C@@H](NC(=O)CNC(=O)[C@H](CCCN)NC(=O)[C@@H](CCCN(O)C=O)NC(=O)[C@@H](CO)NC(=O)[C@@H]1CCNc2c(NC(=O)C(=O)CCC(=O)O)cc3cc(O)c(O)cc3[n+]21)C(=O)N[C@@H](CO)C(=O)N[C@H]1CCCN(O)C1=O [Pvd II aKG (−Fe), Pvd type II α-ketoglutaryl] ({Butanoyl(2-oxo,4-COOH)}-[X1][dS][dOrn(N5-OH,N5-CHO)][Orn]G[d(aThr)]S-X3) | 0.64 nM | – | – | – | 1.6 nM | 2.85 nM | 1.4 nM | 1.2 nM | 0.75 nM | 3.27 nM | 0.81 nM | 1.65 nM | 89 nM | 34 nM | – | – | – | – | –
3 | CN1C([C@H]2CSC(c3ccccc3O)=N2)SC[C@H]1C(=O)O.[Fe+3] (stereo partly drawn) [pch (+Fe), pyochelin] | – | – | – | – | – | – | – | – | – | – | – | – | – | – | no or weak affinity | single digit nM affinity | two- to three digit nM affinity | two- to three digit nM affinity | absence of binding
